This note sets out measurements from the NIST ThermoML archive (doi:10.1016/j.jct.2016.05.008).

For data set [1] the following is noted: Crystal; DTA.
Data set [2] is described as follows: Molar enthalpy of transition or fusion. The note with it: Crystal; DSC.

± gives the expanded uncertainty stated by the source.

As for `CCCCCCCCCCCCCC(=O)O` [tetradecanoic acid], the Normal melting temperature in data set [1] was found to be 54.00 ± 0.53 °C. Also, in data set [2], the “Molar enthalpy of transition or fusion” value is 10.7 ± 0.478 kcal/mol.
Consider `CCCCCCCCCCCCCCCCCC` [octadecane], for which, in data set [1], the Normal melting temperature was determined as 27.80 ± 0.53 °C. Besides, the “Molar enthalpy of transition or fusion” value in data set [2] amounted to 14.7 ± 0.645 kcal/mol.
On to `CCCCCCCCCCCCCCCC(=O)O` [hexadecanoic acid], for which, in data set [1], the Normal melting temperature was 62.00 ± 0.53 °C. Moreover, the “Molar enthalpy of transition or fusion” value in data set [2] is 12.6 ± 0.55 kcal/mol.
